Assay results: patent US6486350B1, “Biological reagents and methods for determining the mechanism in the generation of β-amyloid peptide” (Elan Pharmaceuticals Inc., priority 1998, dated 2002)

Assays:
[1] = system: high affinity Compound 1 (Aβ lowering) site on SWE293 cells; test: Flow cytometry labelling of SWE293 cells with Compound 3; type: cell-based
Procedure: SWE293 cells were successfully labelled with 5 nM of Compound 3 for flow cytometry analysis (excitation 488 nm, emission 510 (+/−10) nm) to give a four fold increase in fluorescence intensity over background unlabeled cells, consistent with the binding site being in relatively low abundance. At 5 nM concentration this compound only labels the high affinity Compound 1 (Aβ lowering) site. In the presence of 1 μM 5-(S)-[N′-((S)-3,5-Difluorophenyl-α-hydroxyacetyl)-L-alaninyl]amino-7-methyl-5,7-dihydro-6H-dibenz[b,d]azepin-6-one (Example 29), (which is sufficient to completely displace all specifically bound Compound of Example 28 at >>5 nM)), the signal was reduced by 20% (p<0.001), after background subtraction. Compound 3 is obviously a very hydrophobic molecule (log P>3), and the non displaceable signal is almost certainly due to non-specific partitioning into cell membranes.

log P = type: physicochemical
[2] = system: Aβ production in 293 cells; test: Inhibition of Aβ production in 293 cells; type: cell-based; conditions: Homo sapiens, HEK293, whole cell
[3] = system: low affinity Compound 1 site, membranes obtained from 293 cells; test: Competition with 3H-Compound 1 binding to membranes from 293 cells, low affinity site; conditions: 293 cell membranes, n=2
Procedure: (§1) The compound of Example 28 (Compound 3) was also tested. The high affinity ^3H-N-[8-N′-((2-(R/S)-hydroxy-2-(3,5-difluorophenyl)-acetyl-L-alaninyl)-L-phenylglycine)-3,6-dioxaoctyl]-4,4-difluoro-5,7-dimethyl-4-bora-3α,4α-diaza-s-indacene-3-propionamide (Compound 3) binding site mediates the Aβ lowering activity of Compound 1, whereas the low affinity site is irrelevant to Aβ lowering. […] This wide separation in high and low affinity Ki's (7741.5; n=2) affords a wide window of concentrations of Compound 3 where binding of the compound is almost exclusively to the high affinity Compound 1 site.

[4] = biological target: low affinity Compound 1 site in 293 membranes; test: Saturation binding of 3H-Compound 1 in 293 membranes, low affinity site; conditions: 0-150 nM 3H-Compound 1, 293 membranes, read-out: KD2
Procedure: (§2) The pharmacological profile of ^3H-5-(S)-(N′-((S)-(+)-2-Hydroxy-3-methylbutyryl)-L-alaninyl)amino-7-methyl-5,7-dihydro-6H-dibenz[b,d]azepin-6-one (Compound 1 from Example 30) has been studied in 293 membranes. There are two distinct binding components in the membrane preparations. Saturation binding analysis utilizing 0-50 pM and 0-150 nM ^3H-Compound 1 reveal two sites (KD1=52.7 pM [Bmax1=710 fmol/mg protein]; KD2=32.5 nM [Bmax2=34.4 pmol/mg protein]).
as §1

[5] = biological target: high affinity Compound 1 binding site (Aβ lowering) in 293 membranes (Homo sapiens, UniProt P49768); test: Saturation binding of 3H-Compound 1 in 293 membranes, high affinity site
Procedure: as §2, §1

## Cc1cc(C)n2c1C=C1C=CC(CCC(=O)NCCOCCOCCNC(=O)C(NC(=O)C(C)NC(=O)C(O)c3cc(F)cc(F)c3)c3ccccc3)=[N+]1[B-]2(F)F (racemic) [Compound 3, N-[8-N′-((2-(R/S)-hydroxy-2-(3,5-difluorophenyl)-acetyl-L-alaninyl)-L-phenylglycinyl)amino-3,6-dioxaoctyl]-4,4-difluoro-5,7-dimethyl-4-bora-3α,4α-diaza-s-indacene-3-propionamide]
[1]; SWE293 cells labelled with 5 nM, flow cytometry, excitation 488 nm, emission 510 (+/−10) nm
  increase in fluorescence intensity over background unlabeled cells: four fold
Log P
  logP: > 3
[2]
  IC50: 0.585 nM
[3]
  Ki: 574 nM

## CC(C)[C@H](O)C(=O)N[C@@H](C)C(=O)NC1C(=O)N(C)c2ccccc2-c2ccccc21 (stereo partly drawn) [Compound 1, 5-(S)-(N′-((S)-(+)-2-Hydroxy-3-methylbutyryl)-L-alaninyl)amino-7-methyl-5,7-dihydro-6H-dibenz[b,d]azepin-6-one]
[4]
  Kd: 32.5 nM
[5]
  Bmax1: 710 fmol/mg protein

## C[C@H](NC(=O)[C@@H](O)c1cc(F)cc(F)c1)C(=O)N[C@@H]1C(=O)N(C)c2ccccc2-c2ccccc21 [Example 29, 5-(S)-[N′-((S)-3,5-Difluorophenyl-α-hydroxyacetyl)-L-alaninyl]amino-7-methyl-5,7-dihydro-6H-dibenz[b,d]azepin-6-one]
[1]; 1 μM competitor, SWE293 cells labelled with 5 nM Compound 3, after background subtraction, p<0.001
  reduction of Compound 3 fluorescence signal: 20%
